This note sets out measurements from PMC5458078, “Global mapping of CARM1 substrates defines enzyme specificity and substrate recognition” (Nature Communications, 2017).

In the first assay the test system is MCF7 cells. The assay is described as follows: Quantitative nanoLC-MS/MS (TMT) of ADMA-containing peptides, CARM1 KO vs parental. Also on record: Fold change KO/WT: scale not given here. Conditions: ADMA-containing peptide, CARM1 knockout (KO) vs wild type (WT) MCF7 cells; 6-plex TMT experiment #1; three biological replicates each; sheet "MCF7". In kind it is cell-based, human.
Consider LNASIAGLFPPQINIPLPPrPNLNR, for which the “Fold change KO/WT” value is listed as -2.4198.
For LQGQQFLNQSrQALELK, the “Fold change KO/WT” value is reported as -1.9617.
Same read-out and setting: the figure for LrQQLQAK is -3.626.

The same assay, now with this note: ADMA-containing peptide, MCF7, CARM1 knockout (KO1-3) vs wild type (WT1-3), TMT 6-plex experiment #1.
LVPrLSVGAVSSKPTTPTIATPQTVSVPNK: the “Fold change KO/WT” value was -1.953.
Still for that read-out and setting: the same measure for MAPALSGANLTSPrVPLSAYER: -4.135.

The assay is the same for the next values; noted with them: CARM1 KO vs wild type MCF7 cells, 3 biological replicates each.
As to LLPAPrAYLVPENFR, the “Fold change KO/WT” value is given as -0.8691.
The same measure, in the same setting: the same measure for LTVPrYSIPTGDPPPYPEIASQLAQGR: -2.163.

Still in this assay, the particulars now being: MCF7, CARM1 KO (KO1-KO3) vs wild type (WT1-WT3).
Turning to LQLGTPPPLLAArLVPPR, the “Fold change KO/WT” value is recorded as -2.7388.
The same measure, in the same setting: the figure for LQNAFWEHGASrAMLPGSPLFTrAPPPK is -2.217.
Same read-out and setting: the figure for MGLLSPSGIGGVSPrHALTSPSLGGQGR is -1.616; for “MGTPVPRPPQDMGQIGVrTPLGPrVAAPVGPVGPTPTVLPMGAPVPRPR” it is -3.424; for “MGTPVPRPPQDMGQIGVrTPLGPrVAAPVGPVGPTPTVLPMGAPVPRPrGPPPPPGDENR” it is -3.388.
On the same count and under the same terms, the figure for “MGTPVPRPPQDMGQIGVrTPLGPrVAAPVGPVGPTPTVLPMGAPVPrPR” is -2.803; for “MGTPVPRPPQDMGQIGVrTPLGPrVAAPVGPVGPTPTVLPMGAPVPrPrGPPPPPGDENR” it is -3.294.

Still in this assay, the particulars now being: MCF7, CARM1 KO vs WT, three biological replicates each.
In the case of LPGTPPLFSPPPrHHLDPHR, the “Fold change KO/WT” value is listed as -1.221.
Still for that read-out and setting: the figure for LQEVSLrQGMr is -0.8557.

Still in this assay, the particulars now being: MCF7, CARM1 knockout vs wild type, n = 3 each.
As for LRGPGGPrGGLGGGMR, the “Fold change KO/WT” value is given as -0.02725.
On the same count and under the same terms, the same measure for LSAETWDLLrLPLER: -3.314.

The assay is the same for the next values; noted with them: MCF7 CARM1 knockout vs wild type, 3 biological replicates each; values are on log2 scale.
Take LLGQRPGPYDRPIGGrGGYYGAGR: the “Fold change KO/WT” value is reported as -0.08078.
Still for that read-out and setting: the figure for LLGQRPGPYDRPIGGrGGYYGAGrGSMYDR is 0.5689; for LQGLQGSGGrGGGLR it is -0.266.
Same read-out and setting: the same measure for LYrYSPQSFLPDSTIQK: -2.857; for MGAGMGFGLErMAAPIDR: -3.039.

For another assay, the system named is MCF7 CARM1 KO cells. Put plainly: Quantitative MS of ADMA-containing peptides in MCF7 CARM1 KO cells expressing CARM1 28-608 or CARM1 140-608, and in CARM1 KO. In kind it is cell-based, human. The note with it: CARM1 140-608 versus WT, difference of mean log2 values.
Take LLPAPrAYLVPENFR: the “CARM1 140-608/WT” value was -1.125.
As for LTVPrYSIPTGDPPPYPEIASQLAQGR, the “CARM1 140-608/WT” value is -0.6093.

Staying with this assay, now noted: CARM1 140-608 versus WT, mean of three replicates (log2).
Take LNASIAGLFPPQINIPLPPrPNLNR: the “CARM1 140-608/WT” value is -1.542.
As to LQGQQFLNQSrQALELK, the “CARM1 140-608/WT” value amounted to 0.6173.
Still for that read-out and setting: the figure for LQLGTPPPLLAArLVPPR is -3.287; for LQNAFWEHGASrAMLPGSPLFTrAPPPK it is -1.727.

Staying with this assay, now noted: CARM1 140-608 vs WT, mean of 3 replicates (log2 scale).
Turning to MGLLSPSGIGGVSPrHALTSPSLGGQGR, the “CARM1 140-608/WT” value is -0.809.
On the same count and under the same terms, the figure for “MGTPVPRPPQDMGQIGVrTPLGPrVAAPVGPVGPTPTVLPMGAPVPRPR” is -1.595; for “MGTPVPRPPQDMGQIGVrTPLGPrVAAPVGPVGPTPTVLPMGAPVPRPrGPPPPPGDENR” it is -2.483; for “MGTPVPRPPQDMGQIGVrTPLGPrVAAPVGPVGPTPTVLPMGAPVPrPR” it is -2.519.
Take “MGTPVPRPPQDMGQIGVrTPLGPrVAAPVGPVGPTPTVLPMGAPVPrPrGPPPPPGDENR”: the “CARM1 140-608/WT” value is -2.604.

Staying with this assay, now noted: CARM1 140-608 vs WT, mean of 3 replicates, log2.
On to LPGTPPLFSPPPrHHLDPHR, for which the “CARM1 140-608/WT” value is reported as -1.232.

Staying with this assay, now noted: CARM1 KO versus WT, difference of mean log2 values.
Consider LLPAPrAYLVPENFR, for which the KO/WT was -0.8691.
Take LTVPrYSIPTGDPPPYPEIASQLAQGR: the KO/WT is -2.766.

Staying with this assay, now noted: KO versus WT, mean of three replicates (log2).
For the substance LNASIAGLFPPQINIPLPPrPNLNR, the KO/WT is -2.454.
Take LQGQQFLNQSrQALELK: the KO/WT is given as -0.8589.
As to LQLGTPPPLLAArLVPPR, the KO/WT is listed as -5.072.
As to LQNAFWEHGASrAMLPGSPLFTrAPPPK, the KO/WT was -2.217.

The same assay, now with this note: KO vs WT, mean of 3 replicates (log2 scale).
For the substance MGLLSPSGIGGVSPrHALTSPSLGGQGR, the KO/WT is -1.616.
As to “MGTPVPRPPQDMGQIGVrTPLGPrVAAPVGPVGPTPTVLPMGAPVPRPR”, the KO/WT is listed as -3.449.
With “MGTPVPRPPQDMGQIGVrTPLGPrVAAPVGPVGPTPTVLPMGAPVPRPrGPPPPPGDENR”, the KO/WT was -3.388.
On to “MGTPVPRPPQDMGQIGVrTPLGPrVAAPVGPVGPTPTVLPMGAPVPrPR”, for which the KO/WT is reported as -3.3286.
On to “MGTPVPRPPQDMGQIGVrTPLGPrVAAPVGPVGPTPTVLPMGAPVPrPrGPPPPPGDENR”, for which the KO/WT is -3.5517.

Staying with this assay, now noted: KO vs WT, mean of 3 replicates, log2.
For the substance LPGTPPLFSPPPrHHLDPHR, the KO/WT is -1.196.

Staying with this assay, now noted: difference of log2 means, CARM1 140-608 vs WT.
On to LrQQLQAK, for which the “CARM1 140-608/WT” value is recorded as -1.5575.

The same assay, now with this note: difference of log2 means, KO vs WT.
As to LrQQLQAK, the KO/WT is recorded as -2.723.

Still in this assay, the particulars now being: log2 scale ratio, mean of n = 3.
Take LVPrLSVGAVSSKPTTPTIATPQTVSVPNK: the “CARM1 140-608/WT” value is -1.646 and the KO/WT is recorded as -1.953.
Take MAPALSGANLTSPrVPLSAYER: the “CARM1 140-608/WT” value was -3.667 and the KO/WT is reported as -5.009.

Still in this assay, the particulars now being: mean, CARM1 140-608 versus WT (log2 scale).
With LLGQRPGPYDRPIGGrGGYYGAGR, the “CARM1 140-608/WT” value came to 0.09661.
On the same count and under the same terms, the same measure for LLGQRPGPYDRPIGGrGGYYGAGrGSMYDR: -0.09536; for LQGLQGSGGrGGGLR: 0.05748.
The same measure, in the same setting: the same measure for LRGPGGPrGGLGGGMR: 0.5472; for LSAETWDLLrLPLER: -2.21; for LYrYSPQSFLPDSTIQK: -2.17.
Still for that read-out and setting: the figure for MGAGMGFGLErMAAPIDR is -2.085.

Still in this assay, the particulars now being: mean, CARM1 KO versus WT (log2 scale).
On to LLGQRPGPYDRPIGGrGGYYGAGR, for which the KO/WT is reported as 0.2187.
In the case of LLGQRPGPYDRPIGGrGGYYGAGrGSMYDR, the KO/WT came to 1.04.
Turning to LQGLQGSGGrGGGLR, the KO/WT is -0.4598.
Substance LRGPGGPrGGLGGGMR returned a KO/WT of 1.035.
Consider LSAETWDLLrLPLER, for which the KO/WT is recorded as -3.314.
On to LYrYSPQSFLPDSTIQK, for which the KO/WT is -2.857.
The same measure, in the same setting: the figure for MGAGMGFGLErMAAPIDR is -3.039.

The same assay, now with this note: ratio on log2 scale, mean of 3 replicates.
For the substance LQEVSLrQGMr, the “CARM1 140-608/WT” value was found to be 0.07113 and the KO/WT was -0.8557.
